The nature of series [1]: Pharmacokinetic study: Birinapant in plasma and liver after i.v. Birinapant or I-5-S in rats. The note with it: rat, in vivo; for half-life: Birinapant measured after i.v. Birinapant 5 mg/kg, rats. As for the experimental part:
1. Formulation of preparation and dosing: An appropriate amount of the test sample was precisely weighed, and mixed with an appropriate volume of a solvent (5% DMSO/5% Solutol/90% water) to obtain a clear solution or a homogeneous suspension. The preparation was administered to animals within 4 hours after formulation. The dosage formulation would be administered […] in accordance with facility standard operating procedures. The dosage volume would be determined by the body weights of the animals collected on the morning of administering. 2. Blood collection: Blood (approx. 0.2 ml per point in time) would be drawn each time from the jugular vein of every animal. All blood samples would be transferred to pre-cooled commercial EDTA-K2 test tubes, and kept on wet ice until they were centrifuged. 3. Plasma processing: Blood samples would be centrifuged (3200 rpm, 10 min) at approximately 4° C. Plasma was collected separately and transferred to pre-labeled PP tubes in wet ice at each point in time, and then immediately precipitated by ACN (6 IS) (the ratio of plasma:ACN was 1:4). Centrifugation (10 min, 12,000 rpm) was carried out again to obtain a supernatant. The supernatant was quickly frozen on dry ice and kept at -70±10° C. before LC/MS/MS analysis. 4. Liver processing: Liver tissues were collected at each point in time, washed twice with pre-cooled deionized water, and dried with filter paper. Liver tissues were immediately homogenized with 10-times volume of a methanol-water solution (1:2, v/v). After homogenization, a portion of liver tissue homogenate (e.g., 200 μL of homogenate) was immediately measured. After precipitated on wet ice, the samples were centrifuged, and a supernatant was collected and stored in a refrigerator at -70±10° C. before LC-MS/MS analysis. From the remaining liver homogenate, 800 μL of the homogenate was measured as a spare. […] After the solution of compound Birinapant was intravenously injected into rats, the concentrations of the active compound Birinapant in the rats were determined in the plasma and liver, respectively (see Table 1). After the solution of compound […] was intravenously injected into rats, the concentrations of the active compound Birinapant in the rats were determined in the plasma and liver, respectively (see Table 2).

For series [2] the following is noted: cited from earlier work.
For series [3], the system named is hepatitis B virus. As to conditions: animal models; cited from earlier work.
The subject of series [4] is hepatocellular carcinoma. As to conditions: cited from earlier work.
Series [5] can be described thus: Pharmacokinetic test of Compound A or B given orally or intravenously to rats (plasma and liver). As to conditions: administered orally or intravenously. It is filed as in vivo. On the procedure:
To address the above-mentioned problems, the inventors have conducted intensive researches on analogues of Birinapant in the hope of reducing the toxic and side effects on the circulating system while maintaining or improving the therapeutic effect. […] Under the same conditions as described above, after rats were orally or intravenously injected with a solution of Compound A or B, the concentrations of Compound A or B and drug Birinapant in rats were measured in plasma and liver, respectively. […] Therefore, such prodrugs would have no value of application for Birinapant.

“And” between values parts separate entries of the source, which are not always exact repeats. Identical values can stand only once. “Also recorded” adds a separate entry of the source.

For the compound `CC[C@H](NC(=O)[C@H](C)NC)C(=O)N1C[C@@H](O)C[C@H]1Cc1c(-c2[nH]c3cc(F)ccc3c2C[C@@H]2C[C@H](O)CN2C(=O)[C@H](CC)NC(=O)[C@H](C)NC)[nH]c2cc(F)ccc12` [Birinapant], the C0 in series [1] (iv) amounted to 3470 ng/mL. In addition, in series [1] (iv, 5 mg/kg), the AUC0-24 was determined as 40566 ng·h/g; the AUC0-inf was 76641 ng·h/g; the AUC0-last worked out at 66712 ng·h/g; the AUC(0-inf) – broadly, total exposure, with the tail of the curve extrapolated – came to 1090 ng·h/mL. In series [1] (iv, 5 mg/kg), the C0 was found to be 3470 ng/mL; the Cmax (as a rule, the maximum level reached in the sampled fluid or tissue) was 3470 ng/mL and 4280 ng/g; the Kp – broadly, the ratio of the level in a tissue or fluid to that in plasma or blood – was found to be 64; the Tmax – broadly, the time from dosing to the highest level – is 0.25 h. Besides, in series [1] (iv, 5 mg/kg), the Vd (in general, the apparent volume that relates the amount in the body to the concentration in plasma or blood) amounted to 36.3 L/kg and the clearance (commonly a measure of how efficiently the substance is removed, as volume per time) amounted to 76.3 mL/min/kg. Besides, in series [1] (iv, 5 mg/kg, AUC0-24), the AUC(0-t) (as a rule, the area under the concentration-time curve up to a stated or last time point) is 967 ng·h/mL. The same compound yielded an AUC(0-t) in series [1] (iv, 5 mg/kg, AUC0-last) of 1040 ng·h/mL. In series [1] (iv, 5 mg/kg, liver), the half-life (usually the time needed for the level to fall by half in the phase considered) was 22.9 h. The half-life in series [1] (iv, 5 mg/kg, plasma) was 14.6 h. The “side effect in patients” value in series [2] (patients, high doses) is given as “paralysis of facial muscles”. Further, in series [2] (per week or twice weekly, cancer clinical trials), the safe dose is 17 mg/M2. The “Dose Limited Toxicity” value in series [2] (twice weekly, limited by paralysis of facial muscles, cancer clinical trials) was 22 mg/M2. Besides, the “inhibition of hepatitis B virus, particularly replication of HBsAg” value in series [3] is reported as “effective in inhibiting hepatitis B virus”. The “survival in dosed mice” value in series [4] was “significantly prolonged”.

Take `CC[C@H](NC(=O)[C@H](C)N(C)C(=O)OCc1ccccc1)C(=O)N1C[C@@H](O)C[C@H]1Cc1c(-c2[nH]c3cc(F)ccc3c2C[C@@H]2C[C@H](O)CN2C(=O)[C@H](CC)NC(=O)[C@H](C)N(C)C(=O)OCc2ccccc2)[nH]c2cc(F)ccc12` [Compound A]: in series [5], the “degradation by in vivo esterases to release the active drug Birinapant” value is “have not been degraded at all; also recorded: could not be degraded by in vivo esterase at all”; the excreted and recovered is given as 100%.

As to `CCCCCOC(=O)N(C)[C@@H](C)C(=O)N[C@@H](CC)C(=O)N1C[C@@H](O)C[C@H]1Cc1c(-c2[nH]c3cc(F)ccc3c2C[C@@H]2C[C@H](O)CN2C(=O)[C@H](CC)NC(=O)[C@H](C)N(C)C(=O)OCCCCC)[nH]c2cc(F)ccc12` [Compound B], in series [5], the “degradation by in vivo esterases to release the active drug Birinapant” value is “have not been degraded at all; also recorded: could not be degraded by in vivo esterase at all”; the excreted and recovered worked out at 100%.

Consider `CC[C@H](NC(=O)[C@H](C)NC)C(=O)N1C[C@@H](OC(C)=O)C[C@H]1Cc1c(-c2[nH]c3cc(F)ccc3c2C[C@@H]2C[C@H](OC(C)=O)CN2C(=O)[C@H](CC)NC(=O)[C@H](C)NC)[nH]c2cc(F)ccc12` [Compound I-5-S], for which the “conversion of the prodrug into the active drug Birinapant” value in series [1] is “metabolized into the active pharmaceutical ingredient Birinapant”. In addition, in series [1] (iv), the “reduction of the maximum concentration of Birinapant in the plasma in comparison to direct use of Birinapant” value is listed as 94%, the “reduction of total drug exposure in the plasma in comparison to direct use of Birinapant” value turned out to be 49% and the “total exposure of Birinapant released in liver relative to direct use of Birinapant” value was found to be 2.4 times. In addition, in series [1] (iv, 5.97 mg/kg), the “AUC Ratio (L/P)” value was determined as 194.

The values are drawn from patent US12479832B2, “Liver targeting drug, pharmaceutical composition and use thereof” (priority 2019, dated 2025).
